Source: PMC5555199, “Mechanism of pathogen recognition by human dectin-2” (The Journal of Biological Chemistry, 2017)

Target: T1, untagged form of the CRD (human dectin-2) (Homo sapiens, UniProt Q6EIG7)
T1 construct: gene CLEC6A; extended C-type carbohydrate-recognition domain starting at Leu-64, preceded by Met-Ala; untagged; one monomer in the asymmetric unit
T1 sequence (Q6EIG7 64-209): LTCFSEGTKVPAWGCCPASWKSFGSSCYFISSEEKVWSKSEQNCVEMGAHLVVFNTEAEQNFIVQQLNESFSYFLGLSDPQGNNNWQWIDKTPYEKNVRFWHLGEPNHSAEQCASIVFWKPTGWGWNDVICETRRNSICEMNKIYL
Experiment: X-ray crystallography, […] Å
Format: binding
Details: pH 8.0, Ca2+; primary Ca2+ site plus adjacent secondary site; D1 and D2 branches at 50% occupancy each

CC(=O)N[C@H]1[C@H](O[C@H]2[C@H](O)[C@@H](NC(C)=O)C(O)O[C@@H]2CO)O[C@H](CO)[C@@H](O[C@@H]2O[C@H](CO[C@H]3O[C@H](CO[C@H]4O[C@H](CO)[C@@H](O)[C@H](O)[C@@H]4O[C@H]4O[C@H](CO)[C@@H](O)[C@H](O)[C@@H]4O)[C@@H](O)[C@H](O[C@H]4O[C@H](CO)[C@@H](O)[C@H](O)[C@@H]4O[C@H]4O[C@H](CO)[C@@H](O)[C@H](O)[C@@H]4O)[C@@H]3O)[C@@H](O)[C@H](O[C@H]3O[C@H](CO)[C@@H](O)[C@H](O)[C@@H]3O[C@H]3O[C@H](CO)[C@@H](O)[C@H](O)[C@@H]3O[C@H]3O[C@H](CO)[C@@H](O)[C@H](O)[C@@H]3O)[C@@H]2O)[C@@H]1O (stereo partly shown) [Man9GlcNAc2]
X-ray crystallography, 2.4 Å: crystals obtained with the untagged form of the CRD in combination with Man9GlcNAc2 oligosaccharide
